Laboratory results taken from US11872196B2, “Use of cannabidiol in treatment of pulmonary hypertension” (DEYI PHARMARMACEUTICAL LTD., priority 2017, dated 2024).

How the values were obtained:
[1] = tested on: C57BL/6 mice with pulmonary arterial hypertension caused by hypoxia; experiment: Right ventricular systolic pressure (RVSP) in mice with pulmonary arterial hypertension caused by hypoxia; assay type: in vivo, mouse; details: day 15 to 21 of continuous hypoxia, detection on day 21, hypoxia model control 25.55±2.29, normoxia 17.54±1.48, mean±standard error
Experimental: Healthy and lively C57BL/6 mice at the age of 4-6 weeks, with glossy hair colors, and body weights of (25.15±2.15) g (Laboratory Animal Center of Academy of Military Medical Sciences, SPF grade). The mice were divided into four groups: • Group 1 (wild-type normoxia, used as a control group): 10 female mice and 10 male mice under normoxia conditions; • Group 2 (wild-type hypoxia, used as a control group): 10 female mice and 10 male mice under hypoxia conditions; • Group 3 (10 mg/kg, used as an experimental group): 10 female mice and 10 male mice were treated with 10 mg/kg by gavage under hypoxia conditions; • Group 4 (50 mg/kg, used as an experimental group): 10 female mice and 10 male mice were treated with 50 mg/kg by gavage under hypoxia conditions. […]
On day 21, the mice were anesthetized by intraperitoneal injection of sodium pentobarbital (35 mg/kg), and the right ventricular systolic pressure was measured by using a catheter matched with a physiological instrument with reference to the right-heart catheterization reported by Song et al. (Song, Y., Jones, J. E., Beppu, H., Keaney, J. F., Jr., Loscalzo, J., and Zhang, Y. Y. (2005). Increased susceptibility to pulmonary hypertension in heterozygous BMPR2-mutant mice. Circulation 112, 553-562). […] After the catheter entered the right ventricle, RVSP was determined and recorded.

[2] = tested on: C57BL/6 mice with pulmonary arterial hypertension caused by hypoxia; experiment: Right ventricular hypertrophy (RVH) index RV/(LV+S) in hypoxia PAH mice; assay type: in vivo, mouse; details: 7 days, model group 32.62±1.41, normoxia 25.99±1.17, mean±standard error
Experimental: (§1) Healthy and lively C57BL/6 mice at the age of 4-6 weeks, with glossy hair colors, and body weights of (25.15±2.15) g (Laboratory Animal Center of Academy of Military Medical Sciences, SPF grade). The mice were divided into four groups: • Group 1 (wild-type normoxia, used as a control group): 10 female mice and 10 male mice under normoxia conditions; • Group 2 (wild-type hypoxia, used as a control group): 10 female mice and 10 male mice under hypoxia conditions; • Group 3 (10 mg/kg, used as an experimental group): 10 female mice and 10 male mice were treated with 10 mg/kg by gavage under hypoxia conditions; • Group 4 (50 mg/kg, used as an experimental group): 10 female mice and 10 male mice were treated with 50 mg/kg by gavage under hypoxia conditions.
The mice of groups 2-4 were placed in an animal feeding chamber under normal pressure and hypoxia, the oxygen concentration in the chamber was maintained at 9%-11%, and the temperature in the chamber was maintained at 22-26° C. The mice of group 1 inhaled normal atmosphere air, and the other conditions were the same as those for mice of groups 2-4. […]

[3] = tested on: C57BL/6 mice with pulmonary arterial hypertension caused by hypoxia; experiment: Pathological changes of pulmonary arterioles (HE and elastic fiber staining, vascular remodeling rate) in hypoxia PAH mice; assay type: in vivo, mouse
Experimental: as §1
The mice of groups 2-4 were placed in an animal feeding chamber under normal pressure and hypoxia, the oxygen concentration in the chamber was maintained at 9%-11%, and the temperature in the chamber was maintained at 22-26° C. The mice of group 1 inhaled normal atmosphere air, and the other conditions were the same as those for mice of groups 2-4.
In order to explore whether CBD has a therapeutic effect on pulmonary arterial hypertension or not, the inventor first treated mice for 14 days in a continuous hypoxia environment to establish a model of pulmonary arterial hypertension (the groups 2-4), and then administration was started from day 15 to day 21 through gavage once a day, the mice were treated every day for 7 days (the group 3-4), and detection was performed on day 21.
Sample: paraffin sections of mouse lung tissue.
Objective: observing the pathology of lung tissues to detect whether there is a vascular wall thickening phenomenon or not.

TNF-α = experiment: LPS-induced primary alveolar macrophages, TNF-α expression by fluorescence quantitative PCR; assay type: cell-based, mouse; details: 0.5, 1, 5 μM CBD pre-treatment 0.5 h, then 100 ng/mL LPS, 5 h; dose-dependent
Description: (§2) Primary alveolar macrophages were isolated according to the method by Yang et al. (Yang, H. M., Ma, J. Y., Castranova, V., and Ma, J. K. (1997). Effects of diesel exhaust particles on the release of interleukin-1 and tumor necrosis factor-alpha from rat alveolar macrophages. Experimental lung research 23, 269-284): two-month-old mice were taken and injected intraperitoneally with pentobarbital to be anesthetized. The mice were fixed at a supine position, and disinfected at the neck, and the neck skin was cut open to strip gland muscles and expose the trachea. A small opening was cut in an upper part of the trachea without cutting off. A small white pipette tip was inserted onto a 1 ml pipette to pipette 1 ml PBS at 4° C. (free of Ca^2+, free of Mg^2+, […]) [50 ml PBS+0.00876 g EDTA] into the lung from the opening, and then pipetted out from the opening after blowing in. Then fresh PBS was taken and pipetted into and out from the opening repeatedly for 3-4 times. The collected alveolar irrigation solution was centrifuged at 200×g for 5 minutes, and the supernatant was discarded. The cells were washed once with a serum-free RPMI-1640 culture medium and centrifuged at 200×g for 5 minutes. The cells were resuspended by adding a serum-containing RPMI-1640 and then inoculated. The cells were subjected to adherence for 2 h, and then washed for three times with PBS. […]

IL-6 = experiment: LPS-induced primary alveolar macrophages, IL-6 expression by fluorescence quantitative PCR; assay type: cell-based, mouse; details: 0.5, 1, 5 μM CBD pre-treatment 0.5 h, then 100 ng/mL LPS, 5 h; dose-dependent
Description: as §2

MgI2 = experiment: LPS-induced primary alveolar macrophages, MgI2 expression by fluorescence quantitative PCR; assay type: cell-based, mouse; details: 0.5, 1, 5 μM CBD pre-treatment 0.5 h, then 100 ng/mL LPS, 5 h
Description: as §2

[4] = after CBD treatment (10 and 50 mg/kg by gavage) versus hypoxia model group
[5] = both dose groups (10 and 50 mg/kg)

In the case of `C=C(C)[C@@H]1CCC(C)=C[C@H]1c1c(O)cc(CCCCC)cc1O` [CBD, Cannabidiol], the “mean right ventricular systolic pressure” value ([1]; 10 mg/kg by gavage once a day) is reported as 16.90±2.31 mmHg, the “mean right ventricular systolic pressure” value ([1]; 50 mg/kg by gavage once a day) is reported as 17.92±2.37 mmHg and the “right ventricular hypertrophy index (right heart index)” value ([2]; 10 mg/kg by gavage) is reported as 30.18±1.01%. The “right ventricular hypertrophy index (right heart index)” value ([2]; 50 mg/kg by gavage) was 29.90±1.19%, the pulmonary arteriole remodeling [3, 4] was “significantly reduced” and the vascular remodeling rate [3, 4] was “significantly reduced”. The “arterial medial wall thickness ratio” value [3, 5] was “reduction”, the “vascular wall medial cross-sectional area ratio” value [3, 5] was “reduction” and the “expression of LPS-induced TNF-α” value (TNF-α) was “significantly inhibit”. For the same molecule, the “expression of LPS-induced IL-6” value (IL-6) was “significantly inhibit” and the “expression of MgI2, a gene that inhibited inflammation” value (MgI2) was “promote”.
